The record followed here is US20150291598A1 (NOVARTIS AG, priority 2012, published 2015).

Like-named read-outs stand apart in the source and are kept apart here. Where only a bound is given, the exact number is not on record here.

In the experiment the test system is P. falciparum (NF54 or 3D7 strain). As to the kind of experiment: Assay for P. falciparum proliferation in infected human blood cells (SYBR Green). Particulars: Plasmodium falciparum, 72 h, NF54 or 3D7 infected human erythrocytes, 72 hours, read-out: EC50 (nM), inhibitory efficacy in delaying P. falciparum proliferation in infected human blood cells. The format is cell-based, Plasmodium falciparum. Summed up: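 Infected erythrocytes (NF54 or 3D7; final 2.5% hematocrit, 0.3% parasitemia) were incubated with compounds for 72 h at 37 °C in low oxygen (3% O2, 4% CO2, 93% N2).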

The mark [1] stands for this setting: 3D7|NF54, Erythrocyte, in Homo sapiens.

For the compound `CN(C(=O)c1cn2c(-c3cc4ccccc4[nH]3)cnc2cn1)c1ccc(-c2cc3ccccc3[nH]2)nc1` [Compound 319, 3-(1H-indol-2-yl)-N-[6-(1H-indol-2-yl)pyridin-3-yl]-N-methylimidazo[1,2-a]pyrazine-6-carboxamide], the EC50 (Erythrocyte) turned out to be 3140 nM. For the compound `Cc1n[nH]c2ccc(-c3cnc4cnc(C(=O)N(C)c5ccc(Cl)nc5)cn34)cc12` [Compound 320, N-(6-chloropyridin-3-yl)-N-methyl-3-(3-methyl-1H-indazol-5-yl)imidazo[1,2-a]pyrazine-6-carboxamide], the EC50 (Erythrocyte) is 2210 nM.

`CN(C(=O)c1cn2c(-c3ccc(C(F)(F)F)cc3)cnc2cn1)c1ccc(N2CCOCC2)cn1` [Compound 321, N-methyl-N-[5-(morpholin-4-yl)pyridin-2-yl]-3-[4-(trifluoromethyl)phenyl]imidazo[1,2-a]pyrazine-6-carboxamide]: the EC50 (Erythrocyte) was determined as 2260 nM. Turning to `CN(C(=O)N1CCC(F)CC1)c1cn2c(-c3ccc(C(F)(F)F)cc3)cnc2cn1` [Compound 322, 4-fluoro-N-methyl-N-{3-[4-(trifluoromethyl)phenyl]imidazo[1,2-a]pyrazin-6-yl}piperidine-1-carboxamide], the EC50 (Erythrocyte) worked out at 2710 nM. The same measure, in the same setting: to `CN(C(=O)c1cn2c(-c3ccc(NC(C)(C)CN)cc3)cnc2cn1)c1ccc(C#N)cc1` [Compound 324, 3-{4-[(1-amino-2-methylpropan-2-yl)amino]phenyl}-N-(4-cyanophenyl)-N-methylimidazo[1,2-a]pyrazine-6-carboxamide] belongs 1230 nM; to `CN(C(=O)c1cn2c(-c3ccc4occc4c3)cnc2cn1)c1ccc(Cl)nc1` [Compound 325, 3-(1-benzofuran-5-yl)-N-(6-chloropyridin-3-yl)-N-methylimidazo[1,2-a]pyrazine-6-carboxamide], 4140 nM; to `CN(C(=O)c1cn2c(-c3ccc(C(F)(F)F)cc3)cnc2cn1)c1cccnc1` [Compound 326, N-methyl-N-(pyridin-3-yl)-3-[4-(trifluoromethyl)phenyl]imidazo[1,2-a]pyrazine-6-carboxamide], 2090 nM. Still for that read-out and setting: with `Cc1cnc(N(C)C(=O)c2cn3c(-c4ccc(C(F)(F)F)cc4)cnc3cn2)cn1` [Compound 327, N-methyl-N-(5-methylpyrazin-2-yl)-3-[4-(trifluoromethyl)phenyl]imidazo[1,2-a]pyrazine-6-carboxamide] the figure was 3310 nM. Turning to `Cc1ccnc(N(C)C(=O)c2cn3c(-c4ccc(C(F)(F)F)cc4)cnc3cn2)c1` [Compound 328], under setting [1], the EC50 is 1090 nM. Take `CN(C(=O)c1cn2c(-c3ccc(C(F)(F)F)cc3)cnc2cn1)c1ccnc(C(F)(F)F)c1` [Compound 329, N-methyl-3-[4-(trifluoromethyl)phenyl]-N-[2-(trifluoromethyl)pyridin-4-yl]imidazo[1,2-a]pyrazine-6-carboxamide]: the EC50 (Erythrocyte) came out at 2760 nM. Same read-out and setting: to `CN(C(=O)c1cn2c(-c3ccc(-n4cccn4)cc3)cnc2cn1)c1ccc(Cl)nc1` [Compound 330, N-(6-chloropyridin-3-yl)-N-methyl-3-[4-(1H-pyrazol-1-yl)phenyl]imidazo[1,2-a]pyrazine-6-carboxamide] belongs 1960 nM.

For the compound `CNC(=O)c1ccc(-c2cnc3cnc(C(=O)N(C)c4ccc(C#N)cc4)cn23)cn1` [Compound 331, 5-{6-[(4-cyanophenyl)(methyl)carbamoyl]imidazo[1,2-a]pyrazin-3-yl}-N-methylpyridine-2-carboxamide], the EC50 (Erythrocyte) is 1740 nM. Same read-out and setting: with `CN(C(=O)c1cn2c(-c3ccc(C(F)(F)F)c(F)c3)cnc2cn1)c1ccc(Cl)nc1` [Compound 332, N-(6-chloropyridin-3-yl)-3-[3-fluoro-4-(trifluoromethyl)phenyl]-N-methylimidazo[1,2-a]pyrazine-6-carboxamide] the figure was 3410 nM; with `COc1ncc(-c2cnc3cnc(C(=O)N(C)c4ccc(C#N)cc4)cn23)cn1` [Compound 333, N-(4-cyanophenyl)-3-(2-methoxypyrimidin-5-yl)-N-methylimidazo[1,2-a]pyrazine-6-carboxamide], 4130 nM. On the same count and under the same terms, to `CCc1ccnc(NC(=O)c2cn3c(-c4ccc(C(F)(F)F)cc4)cnc3cn2)c1` [Compound 334, N-(4-ethylpyridin-2-yl)-3-[4-(trifluoromethyl)phenyl]imidazo[1,2-a]pyrazine-6-carboxamide] belongs more than 5190 nM. Take `COc1cncc(-c2cnc3cnc(C(=O)N(C)c4ccc(C#N)cc4)cn23)n1` [Compound 335, N-(4-cyanophenyl)-3-(6-methoxypyrazin-2-yl)-N-methylimidazo[1,2-a]pyrazine-6-carboxamide]: the EC50 (Erythrocyte) turned out to be 5340 nM. With `COc1ccc(-c2cnc3cnc(C(=O)N(C)c4ccc(Cl)nc4)cn23)cn1` [Compound 336, N-(6-chloropyridin-3-yl)-3-(6-methoxypyridin-3-yl)-N-methylimidazo[1,2-a]pyrazine-6-carboxamide], the EC50 (Erythrocyte) amounted to 6930 nM. Regarding `CN(C(=O)c1cn2c(-c3ccc(C(F)(F)F)cc3)cnc2cn1)c1ccc(C(F)(F)F)cn1` [Compound 337, N-methyl-3-[4-(trifluoromethyl)phenyl]-N-[5-(trifluoromethyl)pyridin-2-yl]imidazo[1,2-a]pyrazine-6-carboxamide], where the note is “Erythrocyte”, the EC50 was more than 7160 nM. On to `COc1ccc(-c2cnc3cnc(CN(C)c4ccc(C)cn4)cn23)cn1` [Compound 338], for which, under setting [1], the EC50 was 4080 nM. Take `Cc1noc(-c2ccc(-c3cnc4cnc(C(=O)N(C)c5ccc(C#N)cc5)cn34)cc2)n1` [Compound 339, N-(4-cyanophenyl)-N-methyl-3-[4-(3-methyl-1,2,4-oxadiazol-5-yl)phenyl]imidazo[1,2-a]pyrazine-6-carboxamide]: the EC50 (Erythrocyte) came to 1260 nM. `CN(C(=O)c1cn2c(-c3ccc(N4CCOCC4)cc3)cnc2cn1)c1ccc(Cl)nc1` [Compound 340, N-(6-chloropyridin-3-yl)-N-methyl-3-[4-(morpholin-4-yl)phenyl]imidazo[1,2-a]pyrazine-6-carboxamide]: the EC50 (Erythrocyte) came out at 6850 nM. `CN(C(=O)c1cn2c(-c3ccc(C#N)cc3)c(C(F)(F)F)nc2cn1)c1ccc(C#N)cc1` [Compound 341, N,3-bis(4-cyanophenyl)-N-methyl-2-(trifluoromethyl)imidazo[1,2-a]pyrazine-6-carboxamide]: where the note is “Erythrocyte”, the EC50 is 5790 nM. For `CN(C(=O)c1cn2c(-c3ccc(C(F)(F)F)cc3)cnc2cn1)c1ccc(Cl)nc1Cl` [Compound 342, N-(2,6-dichloropyridin-3-yl)-N-methyl-3-[4-(trifluoromethyl)phenyl]imidazo[1,2-a]pyrazine-6-carboxamide], the EC50 (Erythrocyte) came to 393 nM. `CN(C(=O)c1cn2c(-c3ccc(C(=O)NC4CC4)cc3)cnc2cn1)c1ccc(Cl)nc1` [Compound 343, N-(6-chloropyridin-3-yl)-3-[4-(cyclopropylcarbamoyl)phenyl]-N-methylimidazo[1,2-a]pyrazine-6-carboxamide]: for the setting “Erythrocyte”, the EC50 is 6780 nM. Same read-out and setting: to `CN(C)c1ncc(-c2cnc3cnc(C(=O)N(C)c4ccc(C#N)cc4)cn23)cn1` [Compound 344, N-(4-cyanophenyl)-3-[2-(dimethylamino)pyrimidin-5-yl]-N-methylimidazo[1,2-a]pyrazine-6-carboxamide] belongs 2990 nM; to `Cc1cccc(N(C)C(=O)c2cn3c(-c4ccc(C(F)(F)F)cc4)cnc3cn2)n1` [Compound 345, N-methyl-N-(6-methylpyridin-2-yl)-3-[4-(trifluoromethyl)phenyl]imidazo[1,2-a]pyrazine-6-carboxamide], 2300 nM.

Take `CN(C(=O)c1cn2c(-c3ccc(C(F)(F)F)cc3)cnc2cn1)c1ccccc1OC(F)F` [Compound 346, N-[2-(difluoromethoxy)phenyl]-N-methyl-3-[4-(trifluoromethyl)phenyl]imidazo[1,2-a]pyrazine-6-carboxamide]: the EC50 (Erythrocyte) was 242 nM. The same measure, in the same setting: with `CN(c1cn2c(-c3ccc(C(F)(F)F)cc3)cnc2cn1)S(=O)(=O)c1ccc(C#N)cc1` [Compound 347, 4-cyano-N-methyl-N-{3-[4-(trifluoromethyl)phenyl]imidazo[1,2-a]pyrazin-6-yl}benzene-1-sulfonamide] the figure was 3260 nM; with `CN(C(=O)c1cn2c(-c3ccc(C(F)(F)F)cc3)cnc2cn1)c1cc(C(F)(F)F)ccn1` [Compound 348, N-methyl-3-[4-(trifluoromethyl)phenyl]-N-[4-(trifluoromethyl)pyridin-2-yl]imidazo[1,2-a]pyrazine-6-carboxamide], 4690 nM; with `CN(C(=O)c1cn2c(-c3ccc4[nH]ncc4c3)cnc2cn1)c1ccc(Cl)nc1` [Compound 349, N-(6-chloropyridin-3-yl)-3-(1H-indazol-5-yl)-N-methylimidazo[1,2-a]pyrazine-6-carboxamide], 4680 nM. The same measure, in the same setting: with `CC1(C)CN(C(=O)c2cn3c(-c4ccc(C(F)(F)F)cc4)cnc3cn2)c2ccc(C#N)cc2O1` [Compound 350, 2,2-dimethyl-4-({3-[4-(trifluoromethyl)phenyl]imidazo[1,2-a]pyrazin-6-yl}carbonyl)-3,4-dihydro-2H-1,4-benzoxazine-7-carbonitrile] the figure was more than 5630 nM; with `CN(C(=O)c1cn2c(-c3cccc(F)n3)cnc2cn1)c1ccc(C#N)cc1` [Compound 351, N-(4-cyanophenyl)-3-(6-fluoropyridin-2-yl)-N-methylimidazo[1,2-a]pyrazine-6-carboxamide], 5620 nM; with `CN(C(=O)c1cn2c(-c3ccc(OC(C)(C)C(N)=O)cc3)cnc2cn1)c1ccc(C#N)cc1` [Compound 352, 3-[4-(1-carbamoyl-1-methylethoxy)phenyl]-N-(4-cyanophenyl)-N-methylimidazo[1,2-a]pyrazine-6-carboxamide], 876 nM. On the same count and under the same terms, with `COc1ccc(N(C)C(=O)c2cn3c(-c4ccc(C(F)(F)F)cc4)cnc3cn2)nc1` [Compound 353, N-(5-methoxypyridin-2-yl)-N-methyl-3-[4-(trifluoromethyl)phenyl]imidazo[1,2-a]pyrazine-6-carboxamide] the figure was 3900 nM.
